From patent US7759087B1, “Method of indefinite culture of hepatitis C virus” (priority 2005, dated 2010)

Tests used:
HCV RNA in GS4 cells = assay: Northern analysis of HCV RNA in GS4 cells; type: cell-based, hepatitis C virus; conditions: 3 days, 1 μM 2CMA, 10 μg/ml aphidicolin
Procedure: RNA extraction and northern blots. Total RNA was extracted with TRIzol reagent (Invitrogen, San Diego, Calif.). Equal amounts of RNA (10 μg per sample) were loaded onto formaldehyde-containing agarose gels for electrophoresis. The transfer of RNA onto a nitrocellulose membrane, random labeling of a radioactive probe, and hybridization were all performed according to standard molecular-biology protocols. The probe for detecting HCV RNA is a cDNA fragment that corresponds to nucleotides 8024 to 9563 of HCV 1 b. The exposure and detection of the radioactive signal was done with a Storm 860 phosphor-imaging system (Amersham/GE Healthcare).
To validate our results at the viral RNA level, we repeated the inhibition and rescue experiments and directly examined HCV RNA by northern blotting. GS4 cells were treated with various inhibitors/agents for 3 days before the total RNAs were subjected to northern analysis for HCV RNA.

[1] = test system: HCV replicon (NS5A-GFP) in GS4 cells; assay: GFP-based flow cytometry assay for HCV replication (NS5A-GFP expression in GS4 replicon cells); type: cell-based, hepatitis C virus; conditions: for mean intensity of the GFP and percentage of GFP-positive cells: 100 units/ml IFN, 1 μM 2CMA, 2 μg/ml Cs A
Procedure: (§1) Flow cytometry and cell cycle analysis. Cells were routinely fixed in 2% paraformaldehyde before flow cytometry analysis, which was performed with a FACSCanto flow cytometer (BD Biosciences). Live cell sorting was performed under sterile conditions with a FACSAria flow cytometer (BD Biosciences). The approximately 5% of cells (2×10^7 cells total) with the strongest GFP signal were sorted back for expansion at each round of live-cell sorting. For cell-cycle analysis, 1×10^6 cells were stained with 50 μg/ml propidium iodide in the presence of 200 μg/ml RNase A and 0.1% Triton X-100 for 30 minutes before being subjected to FACS analysis.
A novel GFP-based flow cytometry assay for HCV replication. Recently, a modified HCV replicon with the eGFP gene inserted into the coding region of NS5A has been generated for study of the subcellular localization of the HCV replication complex (16). […] When we subjected I/5A-GFP cells to flow-cytometry analysis, we found the GFP signal of the majority (˜70%) of the cells to be indistinguishable from that of Clone B, a replicon cell line without GFP but containing the same S2204I mutation in the NS5A gene (1) (FIG. 1). To obtain a cell line with minimal FACS-profile overlap with the GFP-negative replicon cells, we then performed consecutive rounds of cell sorting on I/5A-GFP-6 cells in which the cells with the strongest GFP were recovered. A population with no greater than 15% GFP-negative cells was obtained after four rounds of sorting and was used for the present study. We designated these cells GS4 (FIG. 1).
The GFP signal of these cells was then analyzed by flow cytometry 4 days after treatment with increasing amounts of inhibitors, including Interferon-α (IFN-α), 2′-Cmethyl-adenosine (2CMA), and Cyclosporin A (Cs A). […] The […] (0.25 μM for 2CMA, 0.5 μg/ml for CsA, and 10-25 units/ml for IFN-α) obtained with this assay closely resemble results from previous studies where HCV RNA level was measured (2, 6, 19, 26).

[2] = test system: HCV replicon (wild-type NS5A) in Huh.8 cells; assay: Western blot for NS5A expression in Huh.8 replicon cells; type: cell-based, hepatitis C virus; conditions: 4 days, 1 μM 2CMA, 10 μg/ml aphidicolin
Procedure: Antibodies and western blots. An anti-NS5A monoclonal antibody was purchased from Virogen (Boston, Mass.) and an anti-Ku86 monoclonal antibody from Sigma. A monoclonal antibody against GFP was obtained from Clontech/BD Biosciences. To detect membrane-associated HCV proteins, we directly lysed the replicon cells in SDS PAGE sample buffer. We used 2×10^5 cells per 160 μl of SDS PAGE sample buffer for all our western blotting experiments. Blotting and detection were all performed according to standard procedures. For detection of Ku86 signal, the membrane was first stripped of the NS5A signal by incubation in stripping buffer (100 mM 2mercaptoethanol, 2% SDS, 62.5 mM Tris-HCl, pH 6.7) for 30 minutes at 50° C.
Additional experiments with a replicon cell line containing a wild type HCV sequence. […] Huh.8 is replicon cell line that contains the wild-type sequence of NS5A (1). Huh.8 cells were cultured under various conditions for 4 days before being analyzed by western blot for NS5A expression. […] Serum starvation actually appeared to have increased NS5A expression, as it did with the GS4 cells (FIG. 8 and data not shown).

[3] = test system: HCV replicon (NS5A-GFP) in GS4 cells; assay: Recovery of NS5A-GFP expression at 37° C. after 39° C. treatment of GS4 cells; type: cell-based, hepatitis C virus; conditions: 4 days recovery at 37° C.; 100 units/ml IFN-a, 10 μg/ml aphidicolin
Procedure: To eliminate the possibility that these growth-arrest treatments somehow stabilize the GFP and maintain it throughout the treatment, we took advantage of our finding that 39° C. treatment results in reversible inhibition of HCV replication in our assay. We first eliminated the GFP signal from GS4 cells by incubating them at 39° C. for 4 days and then transferred the cells back to 37° C. so that HCV replication could recover. […] We tested aphidicolin and serum starvation using this assay along with IFN-α.

[4] = test system: full-length HCV RNA based on the genotype 1b HCV-N; conditions: reference 22; cited from earlier work
HCV replicon = conditions: reference 17; cited from earlier work
GS4 cells = assay: Cell-cycle analysis by propidium iodide staining; type: cell-based; conditions: 4 days, 10 μg/ml shown
Procedure: as §1
Failure of growth arrest to inhibit replicon expression prompted us to examine the effect of cell-cycle perturbation on replicon expression. Propidium iodide (PI) staining of the cells permitted acquisition of dual fluorescence FACS profiles showing the cell-cycle distribution of GFP-positive and -negative cells. We found no correlation between positive GFP signal and any of the cell-cycle stages in the cycling cells (FIG. 12, no treatment). Incubation at 39° C. inhibited NS5A-GFP expression without any effect on cell-cycle profile. […] Even though confluency also affected cell cycle to a certain degree, its effect on cell-cycle progress was far less dramatic than that of aphidicolin.

Compound	HCV RNA signal (northern blotting) (HCV RNA in GS4 cells)	mean intensity of the GFP and percentage of GFP-positive cells ([1]; GS4 cells, 4 days)	IC50 ([1]; Hepatitis C virus, 96 h, GS4 cells, 4 days treatment, flow cytometry, read-out: 1050 (NS5A-GFP expression)) [µM]	NS5A expression (western blot) [2]	recovery of NS5A-GFP expression after 39° C. treatment [3]	abundance of HCV RNA or protein [4]	effect on HCV replicon (HCV replicon)	effect on NS5A-GFP expression ([1]; 5 to 20 μg/ml, GS4 cells, 4 days)	cell-cycle arrest (GS4 cells)	effect on HCV RNA replication or protein expression ([1]; our system, data not shown)
C[C@@]1(O)[C@H](O)[C@@H](CO)O[C@H]1n1cnc2c(N)ncnc21 [2CMA, 2′-C-methyl-adenosine]	effectively eliminated HCV RNA signal	effectively lowered	0.25	effectively eliminated any NS5A expression	–	–	–	–	–	–
Interferon-α [IFN-α]	–	effectively lowered	–	–	efficiently blocked the recovery of the NS5A-GFP expression	–	–	–	–	–
C[C@@]1(CO)[C@H](O)CC[C@@]2(C)[C@H]1CC[C@H]1C[C@@H]3C[C@@]12CC[C@]3(O)CO [aphidicolin]	only had a minimal effect	–	–	did not inhibit HCV expression	did not prevent the resumption of HCV replication	had no effect	inhibitory effect	failed to affect NS5A-GFP expression significantly	effectively arrested cell cycle at the G1/S transition	–
TGF-β	–	–	–	–	–	–	–	–	–	only a marginal effect
